Where two headings read alike, the source gives them in different places.
Tests used:
[1] = 0.5 mg/kg bw oral, within 96 h, cited from earlier work
[2] = 90-day rat study: 24 h urinary excretion of OTA and OTA-glucuronides, LC–MS/MS with and without β-glucuronidase hydrolysis; format: in vivo, male F344/N rats; details: for Urinary excretion, fraction of the administered dose / Urinary excretion: 5 days/week; for Urinary excretion, fraction of the administered dose: 24 h urine
Method: (§1) 90-day study: Male F344/N rats (6–7 weeks old) were purchased from Harlan-Winkelmann, Borchen, Germany. Animals were housed in groups of 5 in Macrolon type-4 cages and allowed free access to pelleted standard rat maintenance diet (SSNIFF, Soest, Germany) and tap water. After a week of acclimatization, rats (n = 5/dose) were exposed to OTA dissolved in corn oil by oral gavage at doses of 0, 21, 70 or 210 µg/kg bw for 2, 4 or 13 weeks (5 days per week). For urine collection, animals were transferred into metabolic cages (Tecniplast Metabolic Cage—Rats Over 300 g; Tecniplast, Italy) 48 h prior to necropsy and fasted for 20 h but allowed free access to tap water. Urine was collected for 24 h on ice, aliquoted and stored at −20 °C until further analysis.
(§2) Duplicate analysis of OTA in urine samples with and without enzymatic hydrolysis allowed for indirect measurement of glucuronides, whereby an increase in the concentration of OTA in the samples incubated with enzyme compared to those without enzymatic treatment reflected the hydrolyzed glucuronides. Aliquots of rat urine (125 µL) were mixed with 0.1 M sodium acetate (104 µL; pH = 5). For analysis of the concentration of OTA without enzymatic hydrolysis, an aliquot (30 µL) of this solution was removed and mixed with 7 µL acetonitrile. The remaining solution (199 µL) was incubated with β-glucuronidase (1.65 µL; <100,000 units/mL) at 37 °C for 1 h. Hydrolysis was terminated by addition of ice-cold acetonitrile (50 µL) and centrifugation (15 min., 4 °C, 20,000× g). To 98 µL supernatant, 2 µL isotopically labeled ^13C20-OTA in acetonitrile (14-day study: 5 µg/mL; 90-day study: 1 µg/mL) was added as an internal standard. For analysis, 10 µL of each sample were injected into the LC–MS system and analyzed using the method described below. A calibration curve was prepared from solutions of OTA and the isotopically labeled ^13C20-OTA internal standard in acetonitrile and subsequent dilution with urine of a control animal.
(§3) LC–MS/MS analyses were performed on an Agilent 1100 series LC coupled to an API 2000/Q-Trap mass spectrometer (Applied Biosystems/MDS Sciex, Concord, Canada). Samples were injected into the LC–MS/MS system through an Agilent 1100 series autosampler. Separations were carried out on a ReproSil-Pur C18 AQ column (2 mm × 150 mm, 5 µm; Dr. Maisch; Ammerbuch, Germany). Gradient elution of OTA-derived metabolites was carried out with water + 0.1% formic acid (solvent A) and acetonitrile (solvent B). Initially, solvent A was held isocratic for 5 min at 100%, followed by a linear gradient to 95% B in 5 min. These conditions were held for further 5 min. Within 1 min, the gradient decreased linearly to 0% B and remained at initial conditions until the end of analysis (30 min). A flow rate of 0.2 mL/min was used. For each run, 10 µL of the respective sample were injected by the autosampler.
(§4) The API 2000/Q-Trap mass spectrometer was operated with a Turbo Ion Spray source in negative ion mode with a voltage of −4000 V. Spectral data were recorded with N2 as the heater gas at 450 °C and as the collision gas (CAD = −2) in multiple reaction monitoring mode (MRM).

[3] = 14-day rat study: 24 h urinary excretion of OTA and OTA-glucuronides, LC–MS/MS with and without β-glucuronidase hydrolysis; format: in vivo, male F344/N rats; details: for Urinary excretion / Urinary excretion, fraction of the administered dose: 2 mg OTA/kg bw oral, 5 d/week; for Urinary excretion, fraction of the administered dose: 24 h urine
Method: (§5) 14-day study: Male F344 rats (170–190 g) were purchased from Charles-River Laboratories, Sulzfeld, Germany. Animals had free access to water and standard diet (Altromin) and were kept under standard conditions (12 h day/night cycle, temperature 21–23 °C, humidity 45–55%). Rats were transferred to metabolic cages (Tecniplast Metabolic Cage—Rats Over 300 g; Tecniplast, Italy) for collection of urine 3 days prior to dosing. Animals were administered OTA dissolved in corn oil by oral gavage at 0, 0.25, 0.5, 1.0 and 2.0 mg/kg bw for 2 weeks (5 days per week). Urine was collected every 12 h on day 1 of treatment and every 24 h thereafter on ice, aliquoted and stored at −20 °C until further analysis.
as §2, §3, §4

[4] = Direct LC–MS/MS analysis of OTA metabolites in urine of OTA-treated rats; format: in vivo, male F344/N rats; details: OTA up to 2 mg/kg bw, negative ionization mode
Method: Archived urine samples from previous repeated dose oral toxicity studies on OTA in male F344/N rats were used. The studies were performed according to national animal welfare regulations after authorization by the local authorities (Regierung von Unterfranken, AZ 621-2531.01-9/98 and AZ 54-2531.01-59/05).
as §5, §1
Urine samples were diluted with acetonitrile (2:1), vortexed and cleared via centrifugation (4 °C, 15 min., 2000× g) to precipitate proteins. Of the resulting supernatant, 10 µL were injected into the LC–MS system and analyzed using the method described below.
as §3, §4
In addition to MRM, constant neutral loss of 129 amu in the negative ion mode based on the characteristic fragmentation pattern of mercapturic acids was used to screen for N-acetyl-cysteine conjugates of OTA. Furthermore, constant neutral loss of 176 amu in positive ion mode based on the fragmentation pattern of glucuronic acid conjugates was used to screen for OTA glucuronides.

[5] = 4 weeks treatment, OTA 210 μg/kg bw per day oral, n = 1

C[C@@H]1Cc2c(Cl)cc(C(=O)N[C@@H](Cc3ccccc3)C(=O)O)c(O)c2C(=O)O1 [OTA, Ochratoxin A]
Fraction of orally administered dose excreted in urine ([1]; female rats): 5.2%
Fraction of orally administered dose excreted in urine ([1]; male rats): 2.1%
Urinary excretion, fraction of the administered dose ([2]; 2 weeks treatment, OTA 21 μg/kg bw per day oral): 1.9%
Urinary excretion ([2]; 2 weeks treatment, OTA 21 μg/kg bw per day oral, mean ± SD): 0.22 ± 0.03 nmol/24 h
Urinary excretion, fraction of the administered dose ([2]; 2 weeks treatment, OTA 70 μg/kg bw per day oral): 0.8%
Urinary excretion ([2]; 2 weeks treatment, OTA 70 μg/kg bw per day oral, mean ± SD): 0.32 ± 0.12 nmol/24 h
Urinary excretion, fraction of the administered dose ([2]; 2 weeks treatment, OTA 210 μg/kg bw per day oral): 1.2%
Urinary excretion ([2]; 2 weeks treatment, OTA 210 μg/kg bw per day oral, mean ± SD): 1.35 ± 0.36 nmol/24 h
Urinary excretion, fraction of the administered dose ([2]; 4 weeks treatment, OTA 70 μg/kg bw per day oral): 0.9%
Urinary excretion ([2]; 4 weeks treatment, OTA 70 μg/kg bw per day oral, mean ± SD): 0.51 ± 0.09 nmol/24 h
Urinary excretion, fraction of the administered dose [2, 5]: 4.6%
Urinary excretion [2, 5]: 5.86 nmol/24 h
Urinary excretion, fraction of the administered dose ([2]; 13 weeks treatment, OTA 21 μg/kg bw per day oral): 1.1%
Urinary excretion ([2]; 13 weeks treatment, OTA 21 μg/kg bw per day oral, mean ± SD): 0.18 ± 0.07 nmol/24 h
Urinary excretion, fraction of the administered dose ([2]; 13 weeks treatment, OTA 70 μg/kg bw per day oral): 1.9%
Urinary excretion ([2]; 13 weeks treatment, OTA 70 μg/kg bw per day oral, mean ± SD): 0.97 ± 0.36 nmol/24 h
Urinary excretion, fraction of the administered dose ([2]; 13 weeks treatment, OTA 210 μg/kg bw per day oral): 2.5%
Urinary excretion ([2]; 13 weeks treatment, OTA 210 μg/kg bw per day oral, mean ± SD): 3.88 ± 1.50 nmol/24 h
Fraction of the administered dose excreted in urine ([2]; range over 90-day study, OTA 21, 70 and 210 µg/kg (5 days/week)): 0.8 to 4.6%
Urinary excretion ([3]; animal 2, day 3 of treatment): 15.3 nmol/24 h
Urinary excretion, fraction of the administered dose ([3]; animal 2, day 3 of treatment): 1.8%
Urinary excretion ([3]; animal 2, day 5 of treatment): 40.3 nmol/24 h
Urinary excretion, fraction of the administered dose ([3]; animal 2, day 5 of treatment): 4.7%
Urinary excretion ([3]; animal 2, day 7 of treatment): 35.4 nmol/24 h
Urinary excretion, fraction of the administered dose ([3]; animal 2, day 7 of treatment): 4.1%
Urinary excretion ([3]; animal 2, day 9 of treatment): 32.9 nmol/24 h
Urinary excretion, fraction of the administered dose ([3]; animal 2, day 9 of treatment): 3.7%
Urinary excretion ([3]; animal 2, day 11 of treatment): 40.9 nmol/24 h
Urinary excretion, fraction of the administered dose ([3]; animal 2, day 11 of treatment): 4.6%
Urinary excretion ([3]; animal 2, day 13 of treatment): 21.0 nmol/24 h
Urinary excretion, fraction of the administered dose ([3]; animal 2, day 13 of treatment): 2.2%
Urinary excretion ([3]; animal 3, day 3 of treatment): 4.4 nmol/24 h
Urinary excretion, fraction of the administered dose ([3]; animal 3, day 3 of treatment): 0.5%
Urinary excretion ([3]; animal 3, day 5 of treatment): 30.9 nmol/24 h
Urinary excretion, fraction of the administered dose ([3]; animal 3, day 5 of treatment): 3.5%
Urinary excretion ([3]; animal 3, day 7 of treatment): 62.4 nmol/24 h
Urinary excretion, fraction of the administered dose ([3]; animal 3, day 7 of treatment): 6.9%
Urinary excretion ([3]; animal 3, day 9 of treatment): 17.8 nmol/24 h
Urinary excretion, fraction of the administered dose ([3]; animal 3, day 9 of treatment): 2.0%
Urinary excretion ([3]; animal 3, day 11 of treatment): 33.6 nmol/24 h
Urinary excretion, fraction of the administered dose ([3]; animal 3, day 11 of treatment): 3.7%
Urinary excretion ([3]; animal 3, day 13 of treatment): 48.1 nmol/24 h
Urinary excretion, fraction of the administered dose ([3]; animal 3, day 13 of treatment): 5.3%
24 h urinary excretion, % of the daily administered dose ([3]; range over the course of the study, OTA 2 mg/kg bw for 2 weeks (5 days/week)): 0.5–6.9%
Detection in urine of OTA-treated rats by direct LC–MS/MS (MRM) [4]: consistently found

— publication PMC8402547, “In Vitro and In Vivo Analysis of Ochratoxin A-Derived Glucuronides and Mercapturic Acids as Biomarkers of Exposure” (Toxins, 2021)
